Source: patent US20040116352A1, “Active substance combination containing a compound with an opioid effect and at least one further compound of formula 1” (priority 2000, published 2004)

Test system: rats
Assay: Tail-flick (focal-ray) test on rats
Assay type: in vivo, rat
Conditions: female Sprague Dawley rats, intravenous, 1.46 mg/kg morphine only, measured 10, 20, 40 and 60 min after application, FIGS. 1 and 2
Text: The analgesic effect of the inventive active substance combinations and the comparative solutions was investigated in the focal-ray (tail-flick) test on rats according to D'Amour and Smith, J. Pharm. Exp. Ther. Vol. 72, pages 74-79, 1941. For this, female Sprague Dawley rats (Janvier, France) weighing between 120 and 150 g were used.
The rats were each placed in a test cage and the base of the tail exposed to the focused radiant heat from an electric lamp (tail-flick type 50/08/1.bc, Labtec, Dr. Hess). The lamp intensity was set so that the time from when the lamp was switched on until the tail was suddenly jerked away (pain latency) was 3 to 5 seconds in untreated rats. Before the application of the inventive active substance combinations and the comparative solutions, the rats were pre-tested twice within five minutes and the mean value of these measurements calculated as the pre-test mean value. The solutions of the inventive active substance combinations and the comparative solutions were then applied intravenously. The pain measurements were performed at 10, 20, 40 and 60 minutes respectively after the intravenous application. The analgesic effect was determined as an increase in the pain latency (% of the maximum possible antinociceptive effect) according to the following formula: […]

CN1CC[C@]23c4c5ccc(O)c4O[C@H]2[C@@H](O)C=C[C@H]3[C@H]1C5 [Comparative Example 1, morphine]
analgesic effect (increase in pain latency, % of the maximum possible antinociceptive effect): good analgesic effect
